In patent publication US20150141381A1, “TETRACYCLINE COMPOUNDS HAVING TARGET THERAPEUTIC ACTIVITIES” (Paratek Pharmaceuticals, Inc., priority 2001, published 2015) one finds MIC data, which are given here for 40 compounds.

In assay [1] the test system is E. coli mL308 225. In words: In Vitro Anti-Bacterial Activity Assay (MIC), gram negative. The note with it: Escherichia coli, ML308225, 18 h. Format: cell-based.
Assay [2] concerns S. aureus RN450. Put plainly: In Vitro Anti-Bacterial Activity Assay (MIC), gram positive. The assay is classed as cell-based. The following applies: Staphylococcus aureus, RN450, 18 h.
[3] abbreviates: MIC class, Table 3, read-out: Antibiotic Activity Gram −.
The mark [4] stands for this setting: MIC class, Table 3, read-out: Antibiotic Activity Gram +.
The mark [5] stands for this setting: MIC class, Table 3 (Continued), read-out: Gram− activity.
Where [6] appears, read: MIC class, Table 3 (Continued), read-out: Gram+ activity.
[7] abbreviates: gram negative bacteria, read-out: Antibiotic Activity Gram − (MIC).
The mark [8] stands for this setting: gram positive bacteria, read-out: Antibiotic Activity Gram + (MIC).
[9] abbreviates: read-out: Antibiotic Activity Gram −.
Where [10] appears, read: read-out: Antibiotic Activity Gram +.

Read-outs that look alike come from different tables or passages of the source. Some results are limits rather than exact numbers.

As for `CN(C)c1cc(CNC(=O)c2ccno2)c(O)c2c1C[C@H]1C[C@H]3C(N(C)C)C(O)=C(C(N)=O)C(=O)[C@@]3(O)C(O)=C1C2=O` (some centres unmarked) [MB], the values for the MIC in assay [1] (setting [3]) and in assay [2] (setting [4]) were more than 4 µg/mL and less than 4 µg/mL, respectively.

`CCCCCc1ccc(O)c2c1C[C@H]1C[C@H]3C(N(C)C)C(O)=C(C(N)=O)C(=O)[C@@]3(O)C(O)=C1C2=O` (some centres unmarked): the MIC in assay [1] (setting [5]) and in assay [2] (setting [6]) was less than 4 µg/mL throughout.

Take `CN(C)[C@@H]1C(O)=C(C(N)=O)C(=O)[C@@]2(O)C(O)=C3C(=O)c4c(O)ccc(Cl)c4C[C@H]3C[C@@H]12`: the MIC in assay [1] (setting [7]) and in assay [2] (setting [8]) was less than 4 µg/mL throughout.

`COc1ccc(OC(=O)Nc2ccc3c(c2O)C(=O)C2=C(O)[C@]4(O)C(=O)C(C(N)=O)=C(O)[C@@H](N(C)C)[C@@H]4C[C@@H]2C3)cc1` [AS]: the MIC in assay [1] (setting [9]) was more than 4 µg/mL; in assay [2] (setting [10]) it was less than 4 µg/mL.

Regarding `CO/N=C/c1cc(-c2ccc(O)c3c2C[C@H]2C[C@H]4[C@H](N(C)C)C(O)=C(C(N)=O)C(=O)[C@@]4(O)C(O)=C2C3=O)ccc1OC` [HV], the values for the MIC in assay [1] (setting [3]) and in assay [2] (setting [4]) were more than 4 µg/mL and less than 4 µg/mL, respectively.

As for `Cc1c2c(c(O)c3c(O)cccc13)C(=O)[C@]1(O)C(=O)C(C(N)=O)=C(O)[C@@H](N(C)C)[C@@H]1C2`, the MIC in assay [1] (setting [5]) and in assay [2] (setting [6]) was less than 4 µg/mL in each case.

As to `CN(C)[C@@H]1C(O)=C(C(N)=O)C(=O)[C@@]2(O)C(O)=C3C(=O)c4c(O)ccc(C#CCCC#Cc5ccc(O)c6c5C[C@@]5(C)C[C@@]7(C)[C@H](N(C)C)C(O)C(C(N)=O)C(=O)[C@@]7(O)C(O)=C5C6=O)c4C[C@@]3(C)C[C@@]12C` (some centres unmarked), the MIC in assay [1] (setting [7]) and in assay [2] (setting [8]) was more than 4 µg/mL throughout.

As to `C#Cc1cc(CNC(=O)N2CCOCC2)c2c(c1O)C(=O)C1=C(O)[C@]3(O)C(=O)C(C(N)=O)=C(O)[C@@H](N(C)C)[C@@H]3C[C@@H]1C2`, the MIC in assay [1] (setting [7]) and in assay [2] (setting [8]) was more than 4 µg/mL in each case.

For `CN(C)c1cc(-c2ccc(F)c(F)c2)c(O)c2c1C[C@H]1C[C@H]3[C@H](N(C)C)C(O)=C(C(N)=O)C(=O)[C@@]3(O)C(O)=C1C2=O`, the MIC in assay [1] (setting [5]) and in assay [2] (setting [6]) was less than 4 µg/mL throughout.

Turning to `CN(C)[C@@H]1C(O)=C(C(N)=O)C(=O)[C@@]2(O)C(O)=C3C(=O)c4c(O)ccc(-c5ccc(CNC6CCCCC6)o5)c4C[C@H]3C[C@@H]12` [LK], the MIC in assay [1] (setting [3]) and in assay [2] (setting [4]) was less than 4 µg/mL throughout.

On to `CN(C)c1cc(CNC(=O)CC(F)(F)F)c(O)c2c1C[C@H]1C[C@H]3[C@H](N(C)C)C(O)=C(C(N)=O)C(=O)[C@@]3(O)C(O)=C1C2=O`, for which the MIC in assay [1] (setting [7]) and in assay [2] (setting [8]) was less than 4 µg/mL throughout.

Turning to `C[C@H]1c2ccc(CN3CCCCC3)c(O)c2C(=O)C2=C(O)[C@]3(O)C(=O)C(C(N)=O)=C(O)[C@@H](N(C)C)[C@@H]3[C@@H](O)[C@@H]21`, the MIC in assay [1] (setting [7]) and in assay [2] (setting [8]) was less than 4 µg/mL each time.

With `CC1c2cccc(O)c2C(=O)C2=C(O)[C@]3(O)C(=O)C(C(N)=O)=C(O)[C@@H](N(C)C)[C@@H]3[C@@H](OC(=O)C3CCC3)[C@@H]21` (some centres unmarked), the MIC in assay [1] (setting [5]) and in assay [2] (setting [6]) was less than 4 µg/mL in each case.

Take `COc1ccc(CN2CCCC2)cc1-c1ccc2c(c1O)C(=O)C1=C(O)[C@]3(O)C(=O)C(C(N)=O)=C(O)[C@@H](N(C)C)[C@@H]3[C@@H](O)[C@@H]1[C@H]2C` [HC]: the MIC in assay [1] (setting [3]) and in assay [2] (setting [4]) was more than 4 µg/mL in each case.

Regarding `CC(=O)NCc1cc(N(C)C)c2c(c1O)C(=O)C1=C(O)[C@]3(O)C(=O)C(C(N)=O)=C(O)C(N(C)C)[C@@H]3C[C@@H]1C2` (some centres unmarked) [DR], the MIC is more than 4 µg/mL in assay [1] (setting [3]) and less than 4 µg/mL in assay [2] (setting [4]).

For `CN(C)c1cc(CNC(=O)Oc2ccccc2)c(O)c2c1C[C@H]1C[C@H]3[C@H](N(C)C)C(O)=C(C(N)=O)C(=O)[C@@]3(O)C(O)=C1C2=O` [EP], the MIC was more than 4 µg/mL in assay [1] (setting [9]) and less than 4 µg/mL in assay [2] (setting [10]).

As to `CCc1ccc(O)c2c1C[C@H]1C[C@H]3[C@H](N(C)C)C(O)=C(C(N)=O)C(=O)[C@@]3(O)C(O)=C1C2=O`, the MIC in assay [1] (setting [5]) and in assay [2] (setting [6]) was less than 4 µg/mL in each case.

Regarding `CN(C)[C@@H]1C(O)=C(C(N)=O)C(=O)[C@@]2(O)C(O)=C3C(=O)c4c(ccc(CNCCC(F)(F)F)c4O)C[C@H]3C[C@@H]12`, the MIC in assay [1] (setting [7]) and in assay [2] (setting [8]) was less than 4 µg/mL each time.

For the compound `CN(C)[C@@H]1C(O)=C(C(N)=O)C(=O)[C@@]2(O)C(O)=C3C(=O)c4c(O)c(CS(C)(=O)=O)cc(I)c4C[C@H]3C[C@@H]12`, the values for the MIC in assay [1] (setting [7]) and in assay [2] (setting [8]) were more than 4 µg/mL and less than 4 µg/mL, respectively.

Turning to `CN(C)[C@@H]1C(O)=C(C(N)=O)C(=O)[C@@]2(O)C(O)=C3C(=O)c4c(O)ccc(C#CC5(O)CCCCC5)c4C[C@H]3C[C@@H]12`, the MIC in assay [1] (setting [5]) and in assay [2] (setting [6]) was less than 4 µg/mL throughout.

On to `CCCCN(c1ccc2c(c1O)C(=O)C1=C(O)[C@]3(O)C(=O)C(C(N)=O)=C(O)[C@@H](N(C)C)[C@@H]3C[C@@H]1C2)C1CCN(C)CC1` [JR], for which the MIC in assay [1] (setting [3]) and in assay [2] (setting [4]) was more than 4 µg/mL in each case.

`C[C@H]1c2ccc(-c3cccc(CN4CCN(C)CC4)c3)c(O)c2C(=O)C2=C(O)[C@]3(O)C(=O)C(C(N)=O)=C(O)[C@@H](N(C)C)[C@@H]3[C@@H](O)[C@@H]21` [JA]: the MIC in assay [1] (setting [3]) and in assay [2] (setting [4]) was more than 4 µg/mL in each case.

Consider `CCCC(C)c1ccc(OC)c(-c2ccc(O)c3c2C[C@H]2C[C@H]4[C@H](N(C)C)C(O)=C(C(N)=O)C(=O)[C@@]4(O)C(O)=C2C3=O)c1` (some centres unmarked), for which the results for the MIC in assay [1] (setting [7]) and in assay [2] (setting [8]) were more than 4 µg/mL and less than 4 µg/mL, respectively.

Consider `CC(=O)O[C@H]1[C@H]2C(=C(O)[C@]3(O)C(=O)C(C(N)=O)=C(O)[C@@H](N(C)C)[C@H]13)C(=O)c1c(ccc(CN3CCC(C(F)(F)F)CC3)c1O)[C@@H]2C`, for which the MIC in assay [1] (setting [7]) and in assay [2] (setting [8]) was less than 4 µg/mL each time.

`CN(C)CC#Cc1cc(N(C)C)c2c(c1O)C(=O)C1=C(O)[C@]3(O)C(=O)C(C(N)=O)=C(O)[C@@H](N(C)C)[C@@H]3C[C@@H]1C2`: the MIC in assay [1] (setting [5]) and in assay [2] (setting [6]) was more than 4 µg/mL each time.

Regarding `CN(C)[C@@H]1C(O)=C(C(N)=O)C(=O)[C@@]2(O)C(O)=C3C(=O)c4c(O)ccc(C#CCNS(C)(=O)=O)c4C[C@H]3C[C@@H]12` [CM], the MIC in assay [1] (setting [3]) and in assay [2] (setting [4]) was more than 4 µg/mL throughout.

With `CN(C)c1cc(-c2ccccn2)c2c(c1O)C(=O)C1=C(O)[C@]3(O)C(=O)C(C(N)=O)=C(O)[C@@H](N(C)C)[C@@H]3C[C@@H]1C2`, the MIC in assay [1] (setting [7]) was more than 4 µg/mL; in assay [2] (setting [8]), less than 4 µg/mL.

As for `CC1c2cccc(O)c2C(=O)C(C(=O)O)C1[C@H](O)[C@@H]1CC(=O)C(C(N)=O)=C(O)[C@H]1N(C)C` (some centres unmarked), the MIC in assay [1] (setting [5]) and in assay [2] (setting [6]) was more than 4 µg/mL throughout.

With `C[C@H]1c2cccc(O)c2C(=O)C2=C(O)[C@]3(O)C(=O)C(C(N)=O)=C(O)[C@@H](N(C)C)[C@@H]3[C@@H](O)[C@@H]21` [drawing 3660], the MIC in assay [1] (setting [7]) is more than 4 µg/mL; in assay [2] (setting [8]) it was less than 4 µg/mL.

As to `Cc1ccsc1/C=C/c1ccc(O)c2c1C[C@H]1C[C@H]3[C@H](N(C)C)C(O)=C(C(N)=O)C(=O)[C@@]3(O)C(O)=C1C2=O`, the MIC in assay [1] (setting [5]) and in assay [2] (setting [6]) was less than 4 µg/mL throughout.

Consider `COc1ncc(-c2ccc(O)c3c2C[C@H]2C[C@H]4[C@H](N(C)C)C(O)=C(C(N)=O)C(=O)[C@@]4(O)C(O)=C2C3=O)c(OC)n1` [GF], for which the MIC in assay [1] (setting [3]) and in assay [2] (setting [4]) was less than 4 µg/mL each time.

For `Cc1noc(C)c1S(=O)(=O)NCc1cc(N(C)C)c2c(c1O)C(=O)C1=C(O)[C@]3(O)C(=O)C(C(N)=O)=C(O)[C@@H](N(C)C)[C@@H]3C[C@@H]1C2`, the MIC in assay [1] (setting [7]) is more than 4 µg/mL; in assay [2] (setting [8]), less than 4 µg/mL.

As to `C[C@H]1c2ccc(CNCC(C)(C)C)c(O)c2C(=O)C2=C(O)[C@]3(O)C(=O)C(C(N)=O)=C(O)[C@@H](N(C)C)[C@@H]3[C@@H](O)[C@@H]21` [JG], the MIC in assay [1] (setting [3]) and in assay [2] (setting [4]) was less than 4 µg/mL throughout.

With `CN(C)[C@@H]1C(O)=C(C(N)=O)C(=O)[C@@]2(O)C(O)=C3C(=O)c4c(O)ccc(CNCc5ccc(F)cc5)c4C[C@H]3C[C@@H]12`, the MIC in assay [1] (setting [7]) and in assay [2] (setting [8]) was less than 4 µg/mL in each case.

Take `CN(C)[C@@H]1C(O)=C(C(N)=O)C(=O)[C@@]2(O)C(O)=C3C(=O)c4c(O)c(NC(=O)OCC(C)(C)C)cc(CN)c4C[C@H]3C[C@@H]12` [HP]: the MIC in assay [1] (setting [3]) and in assay [2] (setting [4]) was more than 4 µg/mL each time.

Turning to `CN(C)[C@@H]1C(O)=C(C(N)=O)C(=O)[C@@]2(O)C(O)=C3C(=O)c4c(O)ccc(-c5ccc(/C=N/CC#N)cc5)c4C[C@H]3C[C@@H]12`, the results for the MIC in assay [1] (setting [7]) and in assay [2] (setting [8]) were more than 4 µg/mL and less than 4 µg/mL, respectively.

As to `CN(C)[C@@H]1C(O)=C(C(N)=O)C(=O)[C@@]2(O)C(O)=C3C(=O)c4c(O)ccc(-c5ccc(C(=O)Cl)c6ccccc56)c4C[C@H]3C[C@@H]12`, the results for the MIC in assay [1] (setting [7]) and in assay [2] (setting [8]) were more than 4 µg/mL and less than 4 µg/mL, respectively.

Consider `CCOP(=O)(OCC)C(Nc1ccccc1)c1ccc(-c2cc(N(C)C)c3c(c2O)C(=O)C2=C(O)[C@]4(O)C(=O)C(C(N)=O)=C(O)C(N(C)C)[C@@H]4C[C@@H]2C3)cc1` (some centres unmarked) [DS], for which the MIC in assay [1] (setting [9]) is more than 4 µg/mL; in assay [2] (setting [10]) it was less than 4 µg/mL.

For the compound `CN(C)c1cc(CNC(CF)CF)c(O)c2c1C[C@H]1C[C@H]3[C@H](N(C)C)C(O)=C(C(N)=O)C(=O)[C@@]3(O)C(O)=C1C2=O`, the MIC was more than 4 µg/mL in assay [1] (read-out: Antibiotic Activity Gram − (MIC)) and less than 4 µg/mL in assay [2] (setting [8]).

As for `CN(C)c1ccc(O)c2c1C[C@H]1C[C@H]3[C@H](N(C)C)C(O)=C(C(N)=O)C(=O)[C@@]3(O)C(O)=C1C2=O` [B], the MIC in assay [1] (setting [3]) and in assay [2] (setting [4]) was less than 4 µg/mL in each case.
